Reference: patent US7888386B2, “3-(phenoxyphenylmethyl)pyrrolidine compounds” (Theravance, Inc., priority 2008, dated 2011)
Read-outs that look alike come from different tables or passages of the source.

What was measured:
[1] = target: T1, hSERT (Homo sapiens, UniProt P31645); assay: hSERT binding assay (Assay 1)
T1 construct: expressed in transfected cells; host or cells: HEK-293 derived cell line, stably transfected; membrane preparation
Method in brief: (§1)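 Membranes from HEK-293 cells stably expressing human NET or SERT competed test compound against ^3H-nisoxetine (hNET) or ^3H-citalopram (hSERT). Buffer was 50 mM Tris-HCl pH 7.4, 120 mM NaCl, 5 mM KCl, 0.1% BSA and 400 μM ascorbic acid.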

[2] = target: T2, hNET (Homo sapiens, UniProt P23975); assay: hNET binding assay (Assay 1); conditions: read-out: NET pKi (converted)
T2 construct: expressed in transfected cells; host or cells: HEK-293 derived cell line, stably transfected; membrane preparation
T2 sequence (P23975 whole entry): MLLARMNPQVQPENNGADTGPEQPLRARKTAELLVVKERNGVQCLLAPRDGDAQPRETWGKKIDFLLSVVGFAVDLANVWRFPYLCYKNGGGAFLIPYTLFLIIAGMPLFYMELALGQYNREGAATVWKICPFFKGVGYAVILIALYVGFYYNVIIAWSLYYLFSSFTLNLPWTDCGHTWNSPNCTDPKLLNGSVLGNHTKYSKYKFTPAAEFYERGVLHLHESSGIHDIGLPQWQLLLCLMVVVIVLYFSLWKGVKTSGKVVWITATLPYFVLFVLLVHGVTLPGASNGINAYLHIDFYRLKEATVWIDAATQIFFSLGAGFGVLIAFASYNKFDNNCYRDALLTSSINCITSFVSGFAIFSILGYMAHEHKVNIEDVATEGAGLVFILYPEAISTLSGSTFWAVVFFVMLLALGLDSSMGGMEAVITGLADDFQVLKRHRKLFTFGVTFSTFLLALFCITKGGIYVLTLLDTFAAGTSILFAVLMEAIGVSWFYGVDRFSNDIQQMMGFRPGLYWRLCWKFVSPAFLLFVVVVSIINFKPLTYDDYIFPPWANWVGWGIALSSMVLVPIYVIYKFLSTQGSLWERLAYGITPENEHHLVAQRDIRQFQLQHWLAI
Method in brief: as §1

[3] = ratio of SERT Ki to NET Ki from binding assays
[4] = ratio of binding Ki at hSERT to Ki at hNET, rounded off to the nearest tenth
[5] = membranes of HEK-293 cells expressing hNET, 1.0 nM 3H-nisoxetine
[6] = ratio of binding Ki at SERT to Ki at NET, the tables list only compounds with a ratio in the range 0.1-100
[7] = hNET binding, the tables list only compounds with NET pKi≧8
[8] = ratio of SERT Ki to NET Ki (binding)

T1 sequence (P31645 whole entry): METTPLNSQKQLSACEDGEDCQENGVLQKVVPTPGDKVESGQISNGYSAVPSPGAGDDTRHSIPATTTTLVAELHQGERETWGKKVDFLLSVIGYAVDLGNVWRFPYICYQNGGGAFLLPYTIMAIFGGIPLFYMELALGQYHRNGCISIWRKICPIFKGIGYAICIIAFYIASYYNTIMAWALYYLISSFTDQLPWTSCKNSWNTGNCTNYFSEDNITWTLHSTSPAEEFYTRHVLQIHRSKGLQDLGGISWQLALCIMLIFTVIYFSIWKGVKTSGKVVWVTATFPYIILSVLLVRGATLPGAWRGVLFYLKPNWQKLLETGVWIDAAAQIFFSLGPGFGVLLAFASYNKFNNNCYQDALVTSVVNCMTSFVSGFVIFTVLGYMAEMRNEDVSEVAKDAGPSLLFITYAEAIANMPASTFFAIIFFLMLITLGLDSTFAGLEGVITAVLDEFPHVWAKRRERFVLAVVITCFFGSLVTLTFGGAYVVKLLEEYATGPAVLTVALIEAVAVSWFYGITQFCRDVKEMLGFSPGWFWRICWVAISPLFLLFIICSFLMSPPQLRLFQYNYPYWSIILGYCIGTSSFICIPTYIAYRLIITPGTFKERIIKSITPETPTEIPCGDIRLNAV

Row | SMILES | SERT Ki/NET Ki [1, 4] | Ki [2, 5] | SERT Ki/NET Ki [1, 8] | Ki ([2]; hNET binding) | further results
1 | Clc1cccc(C(Oc2cccc(Cl)c2Cl)C2CCNC2)c1 (stereo not shown) [Compound 26-3] |  |  |  |  | SERT Ki/NET Ki [1, 3]: 0.1; Ki ([2]; hNET binding assay): 5.01 nM
2 | Clc1cc(Br)cc(OC(c2ccccc2)C2CCNC2)c1 (stereo not shown) [34-11] |  |  |  |  | SERT Ki/NET Ki [1, 3]: 0.1; Ki ([2]; hNET binding assay): 2.51 nM
3 | Clc1ccc(Oc2cccc(OC(c3ccccc3)C3CCNC3)c2)cc1 (stereo not shown) [Compound 21-16] | 0.3 | 6.31 nM |  |  | 
4 | CC(C)c1ccccc1OC(c1ccccc1)C1CCNC1 (stereo not shown) [Compound 19-12] | 16 | 2 nM |  |  | 
5 | COc1cc(F)ccc1OC(c1ccccc1)C1CCNC1 (stereo not shown) [27-25] |  |  |  |  | SERT Ki/NET Ki [1, 3]: 4.6; Ki ([2]; hNET binding assay): 0.794 nM
6 | COc1c(F)cccc1O[C@@H](c1ccccc1)[C@H]1CCNC1 [Compound 25-26] | 13 | 1.26 nM |  |  | 
7 | Fc1cccc(C(Oc2ccccc2Cl)C2CCNC2)c1 (stereo not shown) [Compound 20-4] | 0.63 | 2.51 nM |  |  | 
8 | Fc1cc(F)cc([C@@H](Oc2c(Cl)c(F)cc(F)c2Cl)[C@@H]2CCNC2)c1 [48-3] |  |  |  |  | SERT Ki/NET Ki [1, 6]: 2; Ki [2, 7]: 0.251 nM
9 | Fc1cc(F)c(F)c(OC(c2ccccc2)C2CCNC2)c1 (stereo not shown) [38-2] |  |  | 10 | 1.58 nM | 
10 | CC(C)Oc1ccccc1OC(c1ccccc1)C1CCNC1 (stereo not shown) [Compound 19-17] | 40 | 3.16 nM |  |  | 
11 | Cc1ccc(Cl)c(O[C@H](c2cccc(CO)c2)[C@H]2CCNC2)c1Cl [41-17] |  |  | 5 | 1 nM | 
12 | CCc1ccccc1OC(c1ccccc1)C1CCNC1 (stereo not shown) [Compound 19-11] | 4 | 3.16 nM |  |  | 
13 | Fc1cc(F)cc(C(Oc2cc(Cl)ccc2F)C2CCNC2)c1 (stereo not shown) [30-1] |  |  |  |  | SERT Ki/NET Ki [1, 3]: 3.2; Ki ([2]; hNET binding assay): 1.26 nM
14 | Clc1ccc(Cl)c(OC(c2ccccc2)C2CCNC2)c1 (stereo not shown) [29-11] |  |  |  |  | SERT Ki/NET Ki [1, 3]: 0.2; Ki ([2]; hNET binding assay): 3.98 nM
15 | Fc1cc(Cl)c(O[C@@H](c2ccccc2)[C@H]2CCNC2)c(Cl)c1 [44-21] |  |  |  |  | SERT Ki/NET Ki [1, 6]: 0.5; Ki [2, 7]: 6.31 nM
16 | Brc1ccccc1OC(c1ccccc1)C1CCNC1 (stereo not shown) [Compound 19-7] | 1 | 1 nM |  |  | 
17 | COc1cccc(C(Oc2cccc(Cl)c2Cl)C2CCNC2)c1 (stereo not shown) [Compound 26-6] |  |  |  |  | SERT Ki/NET Ki [1, 3]: 0.1; Ki ([2]; hNET binding assay): 3.98 nM
18 | Cc1ccc(F)c(OC(c2ccccc2)C2CCNC2)c1F (stereo not shown) [40-25] |  |  | 2 | 0.501 nM | 

Row | SMILES | SERT Ki/NET Ki [1, 4] | Ki [2, 5] | SERT Ki/NET Ki [1, 8] | Ki ([2]; hNET binding) | further results
19 | Fc1ccc(Oc2cccc(O[C@H](c3ccccc3)[C@@H]3CCNC3)c2)cc1 (racemic) [Compound 21-15] | 1 | 2 nM |  |  | 
20 | N#Cc1cccc([C@H](Oc2c(F)ccc(F)c2Cl)[C@H]2CCNC2)c1 [41-32] |  |  | 40 | 0.398 nM | 
21 | Fc1ccc(Cl)cc1OC(c1ccccc1)C1CCNC1 (stereo not shown) [29-4] |  |  |  |  | SERT Ki/NET Ki [1, 3]: 1.6; Ki ([2]; hNET binding assay): 1.26 nM
22 | Fc1cc(F)cc([C@H](Oc2c(Cl)c(F)cc(F)c2Cl)[C@H]2CCNC2)c1 [48-2] |  |  |  |  | SERT Ki/NET Ki [1, 6]: 10; Ki [2, 7]: 0.398 nM
23 | Fc1c(Cl)cccc1O[C@H](c1ccccc1)[C@@H]1CCNC1 [Compound 25-5] | 0.1 | 1.58 nM |  |  | 
24 | Clc1cccc(Oc2cccc(OC(c3ccccc3)C3CCNC3)c2)c1 (stereo not shown) [Compound 21-14] | 0.8 | 5.01 nM |  |  | 
25 | Fc1cc(F)cc([C@@H](Oc2cc(Cl)cc(Cl)c2)[C@@H]2CCNC2)c1 [35-17] |  |  | 0.2 | 1.58 nM | 
26 | Fc1cc(F)cc(C(Oc2c(Cl)ccc(Cl)c2Cl)C2CCNC2)c1 (stereo not shown) [41-11] |  |  | 0.8 | 0.398 nM | 
27 | Cc1ccc(Cl)c(OC(c2ccccc2)C2CCNC2)c1F (stereo not shown) [40-27] |  |  | 5 | 0.251 nM | 
28 | Cc1ccc(F)c(O[C@H](c2ccccc2)[C@@H]2CCNC2)c1F [40-24] |  |  | 0.4 | 1.58 nM | 
29 | Fc1ccc(Cl)c(Cl)c1OC(c1ccccc1)C1CCNC1 (stereo not shown) [40-12] |  |  | 1.3 | 0.251 nM | 
30 | Cc1ccc(Cl)c(OC(c2ccccc2Cl)C2CCNC2)c1Cl (stereo not shown) [41-18] |  |  | 0.4 | 1.58 nM | 
31 | COc1ccccc1OC(c1cc(F)cc(F)c1)C1CCNC1 (racemic) [Compound 20-32] | 10 | 0.794 nM |  |  | 
32 | Cc1cccc(O[C@@H](c2ccccc2)[C@H]2CCNC2)c1 [Compound 21-8] | 2.5 | 6.31 nM |  |  | 
33 | Fc1cc(F)c(OC(c2ccccc2)C2CCNC2)cc1F (stereo not shown) [42-1] |  |  | 1.6 | 7.94 nM | 
34 | Fc1c(F)c(F)c(O[C@@H](c2ccccc2)[C@H]2CCNC2)c(F)c1F [49-1] |  |  |  |  | SERT Ki/NET Ki [1, 6]: 2.5; Ki [2, 7]: 3.98 nM
35 | Cc1c(Cl)cccc1OC(c1ccccc1)C1CCNC1 (stereo not shown) [Compound 25-20] | 0.2 | 0.631 nM |  |  | 
